In patent publication US20250034136A1 (Nimbus Wadjet, Inc., priority 2023, published 2025):
pEC50, pIC50: −log10 of the molar value.

Columns and labels:
[1] = system: p21 induction in HCT116 cells; assay: p21 induction in HCT116 cells; type: cell-based; details: Homo sapiens, HCT-116, 24 h, HCT116 cells, 24 h compound incubation; read-out: P21_EC50
Outline: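 HCT116 cells, 2,000/well, treated 24 h at 37 °C with 11-point compound dilutions in duplicate. Fixed, then immunostained for p21 and GAPDH and read by near-IR imaging at 800/700 nm. Normalized to DMSO (low) and reference WRN inhibitor (high) controls; EC50 from non-linear regression.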

[2] = target: WRN (BV08), human Werner helicase (Uniprot Q14191, amino acids 517-1235 with L1074F point mutation) (Homo sapiens (Human), UniProt Q14191, L1074F); assay: WRN (BV08) ADP-Glo assay; type: biochemical; details: class symbols A-E, read-out: ADP-Glo_hWRN_IC50
Chain of WRN (BV08), human Werner helicase (Uniprot Q14191, amino acids 517-1235 with L1074F point mutation) (Q14191 other isoform, or with tags, fused parts or gaps L1074F (already in the parent)): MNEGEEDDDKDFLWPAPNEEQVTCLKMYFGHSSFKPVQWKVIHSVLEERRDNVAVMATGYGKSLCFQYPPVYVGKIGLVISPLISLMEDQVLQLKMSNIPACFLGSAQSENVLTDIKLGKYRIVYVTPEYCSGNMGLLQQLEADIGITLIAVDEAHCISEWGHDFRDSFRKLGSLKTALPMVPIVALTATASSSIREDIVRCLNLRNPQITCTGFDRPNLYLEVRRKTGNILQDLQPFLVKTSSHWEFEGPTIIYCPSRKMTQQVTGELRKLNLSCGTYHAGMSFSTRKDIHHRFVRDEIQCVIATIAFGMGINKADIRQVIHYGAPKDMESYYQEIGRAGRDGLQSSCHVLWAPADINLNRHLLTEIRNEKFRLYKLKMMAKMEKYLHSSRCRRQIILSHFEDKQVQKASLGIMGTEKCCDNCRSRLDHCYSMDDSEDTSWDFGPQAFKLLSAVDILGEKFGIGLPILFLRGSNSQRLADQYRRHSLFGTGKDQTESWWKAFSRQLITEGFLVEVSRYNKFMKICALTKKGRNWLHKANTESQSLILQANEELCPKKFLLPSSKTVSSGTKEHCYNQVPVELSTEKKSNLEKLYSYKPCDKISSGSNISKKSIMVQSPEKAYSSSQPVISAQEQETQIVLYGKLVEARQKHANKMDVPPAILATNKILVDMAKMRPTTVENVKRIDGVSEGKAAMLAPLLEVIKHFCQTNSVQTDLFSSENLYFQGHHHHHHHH

pEC50 [1] | pIC50 [2] | Structure (SMILES)
> 6.30 | 7.30 to 8.30 | CCc1c(N2CCN(C(=O)c3ncnc(C)c3O)[C@H]3CC[C@@H]32)c(=O)c2nc(N3CCCC3=O)cnc2n1CC(=O)Nc1ccc(C(F)(F)F)cc1Cl [I-253, N-[2-chloro-4-(trifluoromethyl)phenyl]-2-{6-ethyl-7-[(1S,6S)-5-(5-hydroxy-6-methylpyrimidine-4-carbonyl)-2,5-diazabicyclo[4.2.0]octan-2-yl]-8-oxo-2-(2-oxopyrrolidin-1-yl)-5H,8H-pyrido[2,3-b]pyrazin-5-yl}acetamide]
5.70 to 6.30 | 7.30 to 8.30 | CCc1c(N2CCN(C(=O)c3ncnc(C)c3O)CC2)c(=O)c2nc(C3(C#N)CC3)cnc2n1CC(=O)Nc1ccc(C(F)(F)F)cc1Cl [I-254, N-[2-chloro-4-(trifluoromethyl)phenyl]-2-[2-(1-cyanocyclopropyl)-6-ethyl-7-[4-(5-hydroxy-6-methylpyrimidine-4-carbonyl)piperazin-1-yl]-8-oxo-5H,8H-pyrido[2,3-b]pyrazin-5-yl]acetamide]
> 6.30 | 7.30 to 8.30 | CCc1c(N2CCN(C(=O)c3ncnc(C)c3O)[C@H]3CC[C@@H]32)c(=O)c2nc(N(C)CCOC)cnc2n1CC(=O)Nc1ccc(C(F)(F)F)cc1Cl [I-255, N-[2-chloro-4-(trifluoromethyl)phenyl]-2-{6-ethyl-7-[(1S,6S)-5-(5-hydroxy-6-methylpyrimidine-4-carbonyl)-2,5-diazabicyclo[4.2.0]octan-2-yl]-2-[(2-methoxyethyl)(methyl)amino]-8-oxo-5H,8H-pyrido[2,3-b]pyrazin-5-yl}acetamide]
< 5.30 | 6.30 to 7.00 | CCc1c(N2CC3CC2CN3C(=O)c2ncnc(C)c2O)c(=O)c2nc(N(C)C)cnc2n1CC(=O)Nc1ccc(C(F)(F)F)cc1Cl (stereo not drawn) [I-258, N-[2-chloro-4-(trifluoromethyl)phenyl]-2-[2-(dimethylamino)-6-ethyl-7-[5-(5-hydroxy-6-methylpyrimidine-4-carbonyl)-2,5-diazabicyclo[2.2.1]heptan-2-yl]-8-oxo-5H,8H-pyrido[2,3-b]pyrazin-5-yl]acetamide]
5.70 to 6.30 | 7.30 to 8.30 | CCc1c(N2CCN(C(=O)c3cc(C)cnc3OC)[C@H]3CC[C@@H]32)c(=O)c2nc(N(C)C)cnc2n1CC(=O)Nc1ccc(C(F)(F)F)cc1Cl [I-259, N-[2-chloro-4-(trifluoromethyl)phenyl]-2-[2-(dimethylamino)-6-ethyl-7-[(1S,6S)-5-(2-methoxy-5-methylpyridine-3-carbonyl)-2,5-diazabicyclo[4.2.0]octan-2-yl]-8-oxo-5H,8H-pyrido[2,3-b]pyrazin-5-yl]acetamide]
> 6.30 | 7.30 to 8.30 | CCc1c(N2CCN(C(=O)c3c(OC)ncc(C)c3O)[C@H]3CC[C@@H]32)c(=O)c2nc(N(C)C)cnc2n1CC(=O)Nc1ccc(C(F)(F)F)cc1Cl [I-261, N-[2-chloro-4-(trifluoromethyl)phenyl]-2-[2-(dimethylamino)-6-ethyl-7-[(1S,6S)-5-(4-hydroxy-2-methoxy-5-methylpyridine-3-carbonyl)-2,5-diazabicyclo[4.2.0]octan-2-yl]-8-oxo-5H,8H-pyrido[2,3-b]pyrazin-5-yl]acetamide]
> 6.30 | 7.30 to 8.30 | CCc1c(N2CCN(C(=O)c3ncnc(C)c3O)[C@H]3CC[C@@H]32)c(=O)c2nc(C)cnc2n1CC(=O)Nc1ccc(C(F)(F)F)cc1Cl [I-262, N-[2-chloro-4-(trifluoromethyl)phenyl]-2-{6-ethyl-7-[(1S,6S)-5-(5-hydroxy-6-methylpyrimidine-4-carbonyl)-2,5-diazabicyclo[4.2.0]octan-2-yl]-2-methyl-8-oxo-5H,8H-pyrido[2,3-b]pyrazin-5-yl}acetamide]

Second part, the compound before the results:

Structure (SMILES) | pEC50 [1] | pIC50 [2]
CCc1c(N2CCN(C(=O)c3ncnc(C)c3O)[C@H]3CC[C@@H]32)c(=O)c2nc(N(C)C)cnc2n1CC(=O)Nc1cc(F)c(C(F)(F)F)cc1C [I-236, 2-[2-(dimethylamino)-6-ethyl-7-[(1S,6S)-5-(5-hydroxy-6-methylpyrimidine-4-carbonyl)-2,5-diazabicyclo[4.2.0]octan-2-yl]-8-oxo-5H,8H-pyrido[2,3-b]pyrazin-5-yl]-N-[5-fluoro-2-methyl-4-(trifluoromethyl)phenyl]acetamide] | > 6.30 | 7.30 to 8.30
CCc1c(N2CCN(C(=O)c3c(OC)ncc(C)c3O)CC2)c(=O)c2nc(C3CC3)cnc2n1CC(=O)Nc1ccc(C(F)(F)F)cc1Cl [I-239, N-[2-chloro-4-(trifluoromethyl)phenyl]-2-{2-cyclopropyl-6-ethyl-7-[4-(4-hydroxy-2-methoxy-5-methylpyridine-3-carbonyl)piperazin-1-yl]-8-oxo-5H,8H-pyrido[2,3-b]pyrazin-5-yl} acetamide] | > 6.30 | 7.30 to 8.30
CCc1c(N2CCN(C(=O)c3ncnc(C)c3O)[C@H]3CC[C@@H]32)c(=O)c2nc(N(C)C)cnc2n1CC(=O)Nc1ccc(C(F)F)cc1Cl [I-240, N-[2-chloro-4-(difluoromethyl)phenyl]-2-[2-(dimethylamino)-6-ethyl-7-[(1S,6S)-5-(5-hydroxy-6-methylpyrimidine-4-carbonyl)-2,5-diazabicyclo[4.2.0]octan-2-yl]-8-oxo-5H,8H-pyrido[2,3-b]pyrazin-5-yl]acetamide] | > 6.30 | 7.30 to 8.30
CCc1c(N2CCN(C(=O)c3ncnc(C)c3O)[C@H]3CC[C@@H]32)c(=O)c2nc(-c3ccnn3C)cnc2n1CC(=O)Nc1ccc(C(F)(F)F)cc1Cl [I-241, N-[2-chloro-4-(trifluoromethyl)phenyl]-2-{6-ethyl-7-[(1S,6S)-5-(5-hydroxy-6-methylpyrimidine-4-carbonyl)-2,5-diazabicyclo[4.2.0]octan-2-yl]-2-(1-methyl-1H-pyrazol-5-yl)-8-oxo-5H,8H-pyrido[2,3-b]pyrazin-5-yl}acetamide] | > 6.30 | ≥ 8.30
CCc1c(N2CCN(C(=O)c3ncnc(C)c3O)[C@H]3CC[C@@H]32)c(=O)c2nc(N3CC(OC)C3)cnc2n1CC(=O)Nc1ccc(C(F)(F)F)cc1Cl [I-242, N-[2-chloro-4-(trifluoromethyl)phenyl]-2-{6-ethyl-7-[(1S,6S)-5-(5-hydroxy-6-methylpyrimidine-4-carbonyl)-2,5-diazabicyclo[4.2.0]octan-2-yl]-2-(3-methoxyazetidin-1-yl)-8-oxo-5H,8H-pyrido[2,3-b]pyrazin-5-yl}acetamide] | > 6.30 | 7.30 to 8.30
CCc1c(N2CCN(C(=O)c3c(OC)ncc(C)c3O)[C@H]3CCC[C@@H]32)c(=O)c2nc(N(C)C)cnc2n1CC(=O)Nc1ccc(C(F)(F)F)cc1Cl [I-243, 2-{7-[(4aS,7aS)-4-(4-hydroxy-2-methoxy-5-methylpyridine-3-carbonyl)-octahydro-1H-cyclopenta[b]pyrazin-1-yl]-2-(dimethylamino)-6-ethyl-8-oxo-5H,8H-pyrido[2,3-b]pyrazin-5-yl}-N-[2-chloro-4-(trifluoromethyl)phenyl]acetamide] | > 6.30 | 7.30 to 8.30
CCc1c(N2CCN(C(=O)c3ncnc(C)c3O)C[C@@H]2CO)c(=O)c2nc(N(C)C)cnc2n1CC(=O)Nc1ccc(C(F)(F)F)cc1Cl [I-244, N-[2-chloro-4-(trifluoromethyl)phenyl]-2-[2-(dimethylamino)-6-ethyl-7-[(2R)-4-(5-hydroxy-6-methylpyrimidine-4-carbonyl)-2-(hydroxymethyl)piperazin-1-yl]-8-oxo-5H,8H-pyrido[2,3-b]pyrazin-5-yl]acetamide] | < 5.30 | 7.30 to 8.30
CCc1c(N2CCN(C(=O)c3ncnc(C)c3O)[C@H]3CC[C@@H]32)c(=O)c2nc(N3CC(F)(F)C3)cnc2n1CC(=O)Nc1ccc(C(F)(F)F)cc1Cl [I-245, N-[2-chloro-4-(trifluoromethyl)phenyl]-2-[2-(3,3-difluoroazetidin-1-yl)-6-ethyl-7-[(1S,6S)-5-(5-hydroxy-6-methylpyrimidine-4-carbonyl)-2,5-diazabicyclo[4.2.0]octan-2-yl]-8-oxo-5H,8H-pyrido[2,3-b]pyrazin-5-yl]acetamide] | > 6.30 | 7.30 to 8.30
CCc1c(N2CCN(C(=O)c3ncnc(C)c3O)[C@H]3CC[C@@H]32)c(=O)c2nc(N3CC(C)(O)C3)cnc2n1CC(=O)Nc1ccc(C(F)(F)F)cc1Cl [I-246, N-[2-chloro-4-(trifluoromethyl)phenyl]-2-[6-ethyl-2-(3-hydroxy-3-methylazetidin-1-yl)-7-[(1S,6S)-5-(5-hydroxy-6-methylpyrimidine-4-carbonyl)-2,5-diazabicyclo[4.2.0]octan-2-yl]-8-oxo-5H,8H-pyrido[2,3-b]pyrazin-5-yl]acetamide] | 5.70 to 6.30 | 7.30 to 8.30
CCc1c(N2CCN(C(=O)c3ncnc(C)c3O)CC2(C)C)c(=O)c2nc(N(C)C)cnc2n1CC(=O)Nc1ccc(C(F)(F)F)cc1Cl [I-249, N-[2-chloro-4-(trifluoromethyl)phenyl]-2-[2-(dimethylamino)-6-ethyl-7-[4-(5-hydroxy-6-methylpyrimidine-4-carbonyl)-2,2-dimethylpiperazin-1-yl]-8-oxo-5H,8H-pyrido[2,3-b]pyrazin-5-yl]acetamide] | > 6.30 | 7.30 to 8.30
CCc1c(N2CCN(C(=O)c3ncnc(C)c3O)[C@H]3CC[C@@H]32)c(=O)c2nc(N3CCOCC3)cnc2n1CC(=O)Nc1ccc(C(F)(F)F)cc1Cl [I-250, N-[2-chloro-4-(trifluoromethyl)phenyl]-2-{6-ethyl-7-[(1S,6S)-5-(5-hydroxy-6-methylpyrimidine-4-carbonyl)-2,5-diazabicyclo[4.2.0]octan-2-yl]-2-(morpholin-4-yl)-8-oxo-5H,8H-pyrido[2,3-b]pyrazin-5-yl}acetamide] | > 6.30 | 7.30 to 8.30
